Measurements taken from patent US10617705B1, “Isoquercitrin compositions” (priority 2019, dated 2020).

Assay: Stability of isoquercitrin (or catechin) in solution with L-arginine and sodium ascorbate at 50° C., by HPLC
Type: physicochemical
Settings: aqueous solution with L-arginine and sodium ascorbate; for amount of intact compound remaining, of the initial amount in the solution: HPLC
Description: An exemplary isoquercitrin/L-arginine mixture was prepared by mixing 0.01 mol isoquercitrin with an aqueous solution containing 0.02 mol L-arginine, heating the mixture to 80° C. until the isoquercitrin dissolved completely, and adding 0.001 mol sodium ascorbate. After cooling, the stability of isoquercitrin was tested by heating the mixture to 50° C. and quantifying by HPLC the amount of intact isoquercitrin remaining after 0 h, 5 h, and 24 h.

## O=c1c(O[C@@H]2O[C@H](CO)[C@@H](O)[C@H](O)[C@H]2O)c(-c2ccc(O)c(O)c2)oc2cc(O)cc(O)c12 [isoquercitrin]
5 h at 50° C.
  amount of intact compound remaining, of the initial amount in the solution: 100%
24 h at 50° C.
  amount of intact compound remaining, of the initial amount in the solution: 98.1%
After 24 h at 50° C.
  compound degraded: 1.9%
